Patent US4533553A, “Polycyclic ether antibiotic” (priority 1983, dated 1985)
Structures can show the parent of a compound that is named as a salt.

Legend:
Assay type in all cases: cell-based
[1] = tested on: Treponema hyodysenteriae; assay: in vitro MIC test; conditions: Brachyspira hyodysenteriae, 24 h
Procedure: (§1) In Table I, below, the results of in vitro MIC tests are summarized. For this test each organism is inoculated in a series of test tubes containing nutrient medium and varying concentrations of Compound 53,607 to determine the minimal concentration of the antibiotic in mcg/ml which inhibits the growth of the organism over a period of 24 hours (MIC).

[2] = tested on: Fusobacterium necrophorum; assay: in vitro MIC test; conditions: strain 84C004, 24 hours
Procedure: as §1

[3] = tested on: Staphylococcus epidermidis; assay: in vitro MIC test; conditions: 24 h
Procedure: as §1

[4] = tested on: Pasteurella multocida; assay: in vitro MIC test; conditions: strain 59A001, 24 hours
Procedure: as §1

[5] = tested on: Staphylococcus aureus; assay: in vitro MIC test; conditions: 24 h
Procedure: as §1

[6] = tested on: Bacteroides fragilis; assay: in vitro MIC test; conditions: 24 h
Procedure: as §1

[7] = tested on: Corynebacterium pyogenes; assay: in vitro MIC test; conditions: Rhodococcus (subgen. Prescottella) equi; strain 11D001, 24 hours
Procedure: as §1

[8] = tested on: Haemophilus influenza; assay: in vitro MIC test; conditions: 24 h
Procedure: as §1

[9] = tested on: Bacillus subtilis; assay: in vitro MIC test; conditions: strain 06A001, 24 hours
Procedure: as §1

[10] = tested on: Streptococcus pyogenes; assay: in vitro MIC test; conditions: 24 h
Procedure: as §1

[11] = tested on: Neisseria sicca; assay: in vitro MIC test; conditions: strain 66C000, 24 hours
Procedure: as §1

[12] = tested on: Streptococcus faecalis; assay: in vitro MIC test; conditions: Enterococcus faecalis; strain 02A006, 24 hours
Procedure: as §1

[13] = tested on: Bacteroides vulgatis; assay: in vitro MIC test; conditions: strain 78E032, 24 hours
Procedure: as §1

[14] = tested on: Clostridium perfringens; assay: microbe, parasite or virus in culture

CC(=CC(C)C1OC2(CCC(C)(C3CCC(C)C4(OC(C5OC(O)(CO)C(C)CC5C)CC4C)O3)O2)CC(O)C1C)C(=O)C(C)CC(C)C(=O)O (stereo not shown) [53,607 (sodium salt)]
MIC ([1]; strain 94A001, 24 hours): 0.39 µg/mL | MIC ([1]; strain 94A002, 24 hours): 0.098 µg/mL | MIC [2]: 3.12 µg/mL | MIC ([3]; strain 01B087R): 0.78 µg/mL | MIC ([3]; strain 01B111RR): 0.78 µg/mL | MIC ([3]; strain 01B126, 24 hours): 1.56 µg/mL | MIC [4]: > 200 µg/mL | MIC ([5]; strain 01A005, 24 hours): 0.78 µg/mL | MIC ([5]; strain 01A052, 24 hours): 0.78 µg/mL | MIC ([5]; strain 01A110, 24 hours): 1.56 µg/mL | MIC ([5]; strain 01A400, 24 hours): 1.56 µg/mL | MIC ([6]; strain 78C004, 24 hours): 12.5 µg/mL | MIC ([6]; strain 78C009, 24 hours): 6.25 µg/mL | MIC ([6]; strain 78C010, 24 hours): 6.25 µg/mL | MIC [7]: 25 µg/mL | MIC ([8]; strain 54A036, 24 hours): 6.25 µg/mL | MIC ([8]; strain 54A037, 24 hours): 3.12 µg/mL | MIC ([8]; strain 54A059, 24 hours): 12.5 µg/mL | MIC [9]: 0.39 µg/mL | MIC [10]: < 0.01 µg/mL | MIC [11]: 25 µg/mL | MIC [12]: 1.56 µg/mL | MIC [13]: 3.12 µg/mL | MIC ([14]; Clostridium perfringens, 24 h): 0.98 µg/mL | MIC ([14]; strain 10A003, 24 hours): 0.98 µg/mL
